Data taken from patent US8742106B2 (Novartis AG, priority 2009, dated 2014).

Columns and labels:
[1] = biological target: T1, human orexin 1 receptors (Homo sapiens (Human), UniProt O43613); test: Calcium Accumulation in Cells (FLIPR), antagonism of orexin A; type: cell-based; details: antagonism of orexin A, Cheng-Prusoff corrected; read-out: FLIPR hOx1R Ki
[2] = biological target: T2, human orexin 2 receptors (Homo sapiens (Human), UniProt O43614); test: Radioligand Binding Assay II ([3H]-SB649868 competition, cell membranes); details: read-out: binding II hOx2R Kd
Method in brief: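 Competition binding used membranes from CHO or HEK cells expressing human orexin 2 receptor, incubated 1 h at room temperature with ~1 nM [3H]-SB649868 in 10 mM HEPES pH 7.5, 0.5% BSA, 5 mM MgCl2, 1 mM CaCl2, 0.05% tween. Nonspecific binding was defined with 10 μM almorexant, and bound activity was measured after filtration.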

[3] = biological target: T2, human orexin 2 receptors; test: Radioligand Binding Assay I ([125I]orexin A competition, cell membranes); details: read-out: binding I hOx2R Kd
Method: (§1) Radioligand Binding Assay I
(§2) For crude cell membrane preparations, cells (CHO, Chinese hamster ovary or HEK, human embryonic kidney) expressing human orexin 1 or human orexin 2 receptors, were washed with HEPES (10 mM, pH 7.5), scraped off the culture plates with the same buffer, and centrifuged at 4° C. for 5 min at 2500×g. The cell pellet was either stored at −80° C. or used directly. Before the experiments, cell membranes were re-suspended in binding assay buffer (10 mM HEPES, 0.5% (w/v) bovine serum albumin, pH 7.5) by homogenisation with a Polytron homogeniser at 50 Hz for 20 s. Cell membranes were also used as made available by commercial providers.
(§3) In initial saturation experiments (to calculate Bmax), cell homogenates (150 μl) were incubated with 25-300 pM of the radioligand ([^125I]orexin A, 50 μl), 8 concentrations in triplicates in the presence or absence Orexin A (1 μM, 50 μl) to define non specific binding. Bound radioactivity was measured, and data were analysed with the program XLFIT or Graphpad Prism. Protein concentration was determined according to the Bradford/BioRad Protein Assay Kit.
(§4) In competition experiments, cell homogenates (150 μl) were incubated in assay buffer (10 mM HEPES, pH 7.5, 0.5% (w/v) bovine serum albumin, 5 mM MgCl2, 1 mM CaCl2, and tween 0.05%) for 1 h at room temperature with about 100 pM of the radioligand ([^125I]orexin A, 2100 Ci/mmole, 50 μl), and with various concentrations of compounds of the invention (50 μl) in triplicates; non-specific binding was determined in the presence of Orexin A (1 μM). Reactions were terminated by vacuum filtration, 3 washes of ice cold wash buffer (Tris-HCl pH 7.4/10 mM, with NaCl 154 mM).

[4] = biological target: T1, human orexin 1 receptors; test: as above; details: read-out: binding I hOx1R Kd
Method: as §1, §2, §3, §4

[5] = biological target: T2, human orexin 2 receptors; test: Calcium Accumulation in Cells (FLIPR), antagonism of orexin A; type: cell-based; details: antagonism of orexin A, Cheng-Prusoff corrected; read-out: FLIPR hOx2R Ki
Method in brief: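 Antagonism was measured as block of orexin A-evoked Ca²⁺ fluorescence (FLIPR), with orexin A added one hour after test compound (usually 10^−9–10^−5 M), which was first read alone for agonist activity. Human orexin 2 receptor cells were dye-loaded with 2 μM Fluo4-AM and 0.1 mM probenecid for 1 h.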

[6] = biological target: T1, human orexin 1 receptors; test: Radioligand Binding Assay II ([3H]-SB649868 competition, cell membranes); details: read-out: binding II hOx1R Kd
Method in brief: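 Membranes from CHO or HEK cells expressing human orexin 1 or orexin 2 receptors incubated 1 h at room temperature with about 1 nM [3H]-SB649868 and compound (triplicates) in HEPES pH 7.5 buffer with BSA, MgCl2, CaCl2, tween. Nonspecific binding defined with 10 μM almorexant; filtration read-out, Kd reported.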

T2 sequence (O43614 whole entry): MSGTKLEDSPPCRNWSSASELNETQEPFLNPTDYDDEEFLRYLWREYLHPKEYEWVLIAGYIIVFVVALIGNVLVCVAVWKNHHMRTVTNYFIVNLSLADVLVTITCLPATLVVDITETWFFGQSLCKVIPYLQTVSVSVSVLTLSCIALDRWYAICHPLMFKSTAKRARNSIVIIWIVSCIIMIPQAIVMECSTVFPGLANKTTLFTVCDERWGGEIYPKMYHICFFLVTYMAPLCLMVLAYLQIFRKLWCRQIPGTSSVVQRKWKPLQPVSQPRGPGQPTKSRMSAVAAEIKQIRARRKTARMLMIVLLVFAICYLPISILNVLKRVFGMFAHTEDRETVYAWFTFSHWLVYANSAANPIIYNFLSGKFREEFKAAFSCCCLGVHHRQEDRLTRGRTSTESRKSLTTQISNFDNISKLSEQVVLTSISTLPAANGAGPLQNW
T1 sequence (O43613 whole entry): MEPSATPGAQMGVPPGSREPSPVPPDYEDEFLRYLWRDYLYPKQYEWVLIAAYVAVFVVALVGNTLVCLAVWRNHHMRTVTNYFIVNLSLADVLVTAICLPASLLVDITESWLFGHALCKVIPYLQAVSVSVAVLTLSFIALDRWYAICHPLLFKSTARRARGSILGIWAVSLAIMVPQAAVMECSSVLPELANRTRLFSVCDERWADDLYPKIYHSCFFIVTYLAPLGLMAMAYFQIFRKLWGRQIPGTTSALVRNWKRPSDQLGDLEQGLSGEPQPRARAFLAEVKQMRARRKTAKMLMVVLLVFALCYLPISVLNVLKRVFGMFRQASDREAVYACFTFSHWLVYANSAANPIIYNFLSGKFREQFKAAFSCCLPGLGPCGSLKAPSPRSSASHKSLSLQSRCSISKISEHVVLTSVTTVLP

| Structure (SMILES) | Ki [1] [nM] | melting point [°C] | Kd [2] [nM] | Kd [3] [nM] | Kd [4] [nM] | Ki [5] [nM] | Kd [6] [nM] |
| --- | --- | --- | --- | --- | --- | --- | --- |
| COc1ccc([C@H](C)NC(=O)COc2cc(C(F)(F)F)c3c(-c4ccccc4)nn(C)c3n2)cc1 [Example 1.4, (S)—N-(1-(4-methoxyphenyl)ethyl)-2-(1-methyl-3-phenyl-4-(trifluoromethyl)-1H-pyrazolo[3,4-b]pyridin-6-yloxy)acetamide] | 14 | 172 to 174 | 3 | 4 | 8 | 2 | 7 |
| C[C@H](CNC(=O)COc1cc(C(F)(F)F)c2c(-c3ccccc3)nn(C)c2n1)c1ccccc1 [Example 1.5, (S)-2-(1-methyl-3-phenyl-4-(trifluoromethyl)-1H-pyrazolo[3,4-b]pyridin-6-yloxy)-N-(2-phenylpropyl)acetamide] | 870 | 91 to 93 |  | 76 | 1150 | 36 |  |
